# Measured values as given in ChEMBL document CHEMBL3507680, “University of Dundee, Gates Library screen for HepG2 cell viability”.
# Test: Human HepG2 cell viability assay in 384 well format
# Type: toxicity, cell-based
# Parameters: dose 125 nL, time 70.5 hour; concentration not given beside the values
# Settings: HepG2 cells, read-out: Inhibition
row,Compound,cytotoxicity at 70.5 h
1,Cc1nn(C)cc1S(=O)(=O)NCC(c1ccccc1Cl)N1CCCC1 (configuration not stated),-6.74%
2,COc1ccc(CC(=O)N2CCN(Cc3ccco3)C[C@H]2C)cc1OC,-5.07%
3,CCCn1cc(Cl)c(C(=O)N2C[C@H]3C[C@H](OC)C[C@H]3C2)n1,3.23%
4,CCn1ncc(S(=O)(=O)N[C@@H]2CCC[C@@H](n3ccnc3)[C@@H]2O)c1C,-2.3%
5,CC(=O)NCC(=O)NCC1(O)CCN(c2cnccn2)C1 (configuration not stated),15.9%
6,Cc1nc(-c2c(C)noc2C)cc(C2CCN(CC(=O)N(C)C)CC2)n1,5.85%
7,Cc1noc(C)c1-c1cccc(C2CCN(CC(=O)N(C)C)CC2)n1,-2.68%
8,O=C(c1cncs1)N1CCOCC(Cc2ccccn2)C1 (configuration not stated),-2.59%
9,Cc1ccc2nc(C(=O)N(C)[C@@H]3CC[C@@H](N4CCCC4)[C@@H]3O)cn2c1,-3.38%
10,CC(C)c1ccc(CC2(C)Cc3cc(CC(=O)O)ccc3O2)cc1 (configuration not stated),17.5%
11,c1cc(CN2CCC(c3ccnc4nccn34)C2)ccn1 (configuration not stated),-1.62%
12,CO[C@H]1C[C@@H]2CN(C(=O)c3ccc(C)s3)C[C@@H]2C1,-4.22%
13,NC(=O)c1cnn2c(C3CCCN(C4CCOCC4)C3)ccnc12 (configuration not stated),-0.336%
14,NC(=O)c1cnn2c(C3CCN(CCO)CC3)ccnc12,-3.75%
15,Cc1cc(N(C)C)cc(C2CCN(S(=O)(=O)c3cccs3)C2)n1 (configuration not stated),14.4%
16,Cc1cc(N(C)C)cc(C2CCN(S(=O)(=O)c3cccnc3)C2)n1 (configuration not stated),1.07%
17,Cn1ncc2ccc(C3CCCN(Cc4ccsc4)C3)nc21 (configuration not stated),7.16%
18,Nc1nc(N)c2c(n1)OC1(CCN(C(=O)CC3CCNCC3)CC1)C2,8.24%
19,Nc1nc(N)c2c(n1)OC1(CCN(C(=O)CC3CCCNC3)CC1)C2 (configuration not stated),1.11%

row,Compound,cytotoxicity at 70.5 h
1,CC1(c2[nH]ncc2C(N)=O)CCN(c2ncccn2)CC1,17.1%
2,COc1ccc(CN(C)[C@@H]2CN(S(=O)(=O)C(C)C)C[C@H]2O)cc1,-2.64%
3,CNc1cncc(C2CCCN2C(=O)CCn2ccnc2C(C)C)n1 (configuration not stated),-3%
4,CCS(=O)(=O)N1C[C@@H](O)[C@H](N(C)Cc2ccc(F)cc2)C1,0.693%
5,CN(Cc1ccc(F)cc1)[C@@H]1CN(S(=O)(=O)N(C)C)C[C@H]1O,-0.678%
6,Cn1ncc2ccc(C3CCCN(Cc4cccs4)C3)nc21 (configuration not stated),-0.364%
7,Cc1c(S(=O)(=O)N2CCCCC2c2nnc(-c3cccs3)o2)cnn1C (configuration not stated),-2.57%
8,COCC(=O)N1CCCCC1c1nc(N(C)C)ncc1-c1cc(C)no1 (configuration not stated),21.1%
9,CC1(Cc2ccc(Cl)cc2)Cc2cc(CCC(=O)O)ccc2O1 (configuration not stated),-6.16%
10,CC(C)N1CCCC(CCCc2ccccn2)(C(=O)O)C1 (configuration not stated),-14.7%
11,NC(=O)C1(c2cnccn2)CCCN1Cc1cc2ccccc2o1 (configuration not stated),-9.2%
12,COCC(=O)N1CCCC1c1ccnc(Nc2cnccn2)n1 (configuration not stated),-7.05%
13,CN(Cc1ccc(F)cc1)CC1(O)CCN(C(=O)c2ccccc2)C1 (configuration not stated),-2.54%
14,CNc1cncc(C2CCCN2Cc2ccccc2OCC(=O)O)n1 (configuration not stated),-8.8%
15,Fc1ccc(CN2CCC(c3nccnc3-n3ccnc3)CC2)cc1,2.75%
16,NCc1cnn(-c2ccccc2C(=O)NCCCn2ccnc2)c1,-6.34%
17,Nc1nc(C2CCN(C(=O)c3cncs3)CC2)cs1,-2.63%
18,COc1ccccc1C(=O)N1CC(Cc2nccc3ccn(C)c23)C1,-0.41%
19,Oc1nc(N2CCOCC2)nc2c1CCN(Cc1cccnc1)CC2,-1.7%

row,Compound,cytotoxicity at 70.5 h
1,Cc1cc(C)cc(-c2ccc(CC3(C(=O)O)CCOCC3)cc2)c1,31.5%
2,CNc1cncc(C2CCCN(S(C)(=O)=O)C2)n1 (configuration not stated),0.632%
3,CN1CCCC(Cc2ccnc3ccncc23)CC1 (configuration not stated),34.2%
4,CC1=NOC2(CCN(Cc3c[nH]c4ccccc34)CC2)C1,-9.21%
5,CC(C)CCN1CCC2(CC1)NCc1ccccc1NC2=O,-7.94%
6,O=C1Nc2ccccc2CNC12CCN(CC1CC1)CC2,-9.09%
7,CC(C)NC(=O)N1CCn2c(nnc2C2CCCN2)C1 (configuration not stated),-9.64%
8,O=C(Nc1ccccc1)N1CCn2c(nnc2C2CCNCC2)C1,-9.29%
9,CC(C)NC(=O)c1cc(-c2ccc(S(C)(=O)=O)cc2)c2cnn(C)c2n1,-0.443%
10,CC1(C(=O)NCc2cccc(C(F)(F)F)c2)CCOCC1,-5.33%
11,CC1(C(=O)NCc2ccsc2)CCOCC1,-8.16%
12,CC1(C(=O)NCCc2ccc(F)cc2)CCOCC1,-7.61%
13,O=C(c1ccc(Cl)cc1)N1CCn2c(nn(-c3cccc(Cl)c3)c2=O)C1,-6.26%
14,Cc1ccc(-n2nc3n(c2=O)CCN(C(=O)c2ccc(Cl)cc2)C3)cc1,-10.2%
15,CC(C)NC(=O)N1CCC2(CC1)CN(C(=O)NC(C)C)CCO2,-10.3%
16,O=C(C1CCCC1)N1CC2(CCNC2)OCc2ccccc21 (configuration not stated),-9.78%
17,O=C(c1ccccc1)N1CC2(CCNC2)OCc2ccccc21 (configuration not stated),-9.98%
18,O=C(NC1CC1)C1CCc2nnc(-c3cccnc3)n21 (configuration not stated),-7.6%
19,COc1ccccc1-c1nc(C(=O)N2CCOCC2)n2ccncc12,-9.1%
